Target: T1, recombinant human NK3 receptor (Homo sapiens, UniProt P29371)
T1 construct: expressed in transfected cells; host or cells: HEK293 cells, transient expression; membranes
T1 sequence (P29371 1-465): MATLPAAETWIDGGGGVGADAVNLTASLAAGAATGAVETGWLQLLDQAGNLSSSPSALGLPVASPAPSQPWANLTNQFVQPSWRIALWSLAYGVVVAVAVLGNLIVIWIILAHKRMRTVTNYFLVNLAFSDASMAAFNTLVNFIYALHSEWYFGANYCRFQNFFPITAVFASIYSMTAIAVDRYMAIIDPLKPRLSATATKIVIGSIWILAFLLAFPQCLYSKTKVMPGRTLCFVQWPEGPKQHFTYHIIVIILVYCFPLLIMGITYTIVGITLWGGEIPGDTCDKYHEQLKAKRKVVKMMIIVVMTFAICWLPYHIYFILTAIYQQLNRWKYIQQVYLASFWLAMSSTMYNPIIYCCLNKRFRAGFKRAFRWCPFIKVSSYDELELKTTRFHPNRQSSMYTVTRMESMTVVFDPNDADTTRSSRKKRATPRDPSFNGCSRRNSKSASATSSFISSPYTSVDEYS
Assay: [3H]SR142801 competition binding assay
Settings: not given

Compound	Ki [nM]
CN(C(=O)Oc1ccc(F)cc1)[C@@H]1CN(C(=O)C2CCN(c3cncc(C#N)n3)CC2)C[C@H]1c1ccc(Cl)cc1 [Example 187, {(3S,4R)-4-(4-Chloro-phenyl)-1-[1-(6-cyano-pyrazin-2-yl)-piperidine-4-carbonyl]-pyrrolidin-3-yl}-methyl-carbamic acid 4-fluoro-phenyl ester]	2.6
CN(C(=O)Oc1ccc(F)cc1)[C@@H]1CN(C(=O)C2CCN(C3CCOCC3)CC2)C[C@H]1c1ccc(Cl)cc1 [Example 112, {(3S,4R)-4-(4-Chloro-phenyl)-1-[1-(tetrahydro-pyran-4-yl)-piperidine-4-carbonyl]-pyrrolidin-3-yl}-methyl-carbamic acid 4-fluoro-phenyl ester]	3.7
CC(=O)N1CCC(C(=O)N2C[C@H](c3ccc(Cl)c(Cl)c3)[C@@H](N(C)C(=O)Oc3ccc(F)cc3)C2)CC1 (racemic) [Example 65, rac-[(3R,4S)-1-(1-Acetyl-piperidine-4-carbonyl)-4-(3,4-dichloro-phenyl)-pyrrolidin-3-yl]-methyl-carbamic acid 4-fluoro-phenyl ester]	0.7
CN(C(=O)Oc1ccc(F)cc1)[C@@H]1CN(C(=O)C2CCC(F)(F)CC2)C[C@H]1c1ccc(Cl)cc1 [Example 117, [(3S,4R)-4-(4-Chloro-phenyl)-1-(4,4-difluoro-cyclohexanecarbonyl)-pyrrolidin-3-yl]-methyl-carbamic acid 4-fluoro-phenyl ester]	17.4
Cc1ccc(OC(=O)N(C)[C@H]2CN(C(=O)C3CCN(C(=O)C4(C)CC4)CC3)C[C@@H]2c2ccc(Cl)c(Cl)c2)cc1 (racemic) [Example 14, rac-{(3R,4S)-4-(3,4-Dichloro-phenyl)-1-[1-(1-methyl-cyclopropanecarbonyl)-piperidine-4-carbonyl]-pyrrolidin-3-yl}-methyl-carbamic acid p-tolyl ester]	1.2
CN(C(=O)Oc1ccc(F)cc1)[C@H]1CN(C(=O)C2CCN(c3ccc(Cl)nn3)CC2)C[C@@H]1c1ccc(Cl)c(Cl)c1 (racemic) [Example 79, rac-[(3R,4S)-1-[1-(6-Chloro-pyridazin-3-yl)-piperidine-4-carbonyl]-4-(3,4-dichloro-phenyl)-pyrrolidin-3-yl]-methyl-carbamic acid 4-fluoro-phenyl ester]	0.4
CC(C)COC(=O)N(C)[C@@H]1CN(C(=O)C2CCN(c3ccc(C#N)cn3)CC2)C[C@H]1c1ccc(Cl)cc1 [Example 139, [(3S,4R)-4-(4-Chloro-phenyl)-1-(5′-cyano-3,4,5,6-tetrahydro-2H-[1,2′]bipyridinyl-4-carbonyl)-pyrrolidin-3-yl]-methyl-carbamic acid isobutyl ester]	3.9
CCC(=O)N1CCC(C(=O)N2C[C@H](c3ccc(Cl)c(Cl)c3)[C@@H](N(C)C(=O)Oc3ccc(F)cc3)C2)CC1 (racemic) [Example 73, rac-[(3R,4S)-4-(3,4-Dichloro-phenyl)-1-(1-propionyl-piperidine-4-carbonyl)-pyrrolidin-3-yl]-methyl-carbamic acid 4-fluoro-phenyl ester]	0.8
CN(C(=O)OCC1CCC(F)(F)CC1)[C@H]1CN(C(=O)C2CCN(C(=O)C3(C)CC3)CC2)C[C@@H]1c1ccc(Cl)c(Cl)c1 (racemic) [Example 99, rac {(3R,4S)-4-(3,4-Dichloro-phenyl)-1-[1-(1-methyl-cyclopropanecarbonyl)-piperidine-4-carbonyl]-pyrrolidin-3-yl}-methyl-carbamic acid 4,4-difluoro-cyclohexylmethyl ester]	1.6
CC(C)N1CC(C(=O)N2CCC(C(=O)N3C[C@@H](N(C)C(=O)Oc4ccc(F)cc4)[C@H](c4ccc(Cl)c(Cl)c4)C3)CC2)CCC1=O (stereo partly drawn) [Example 282, {(3S,4R)-4-(3,4-Dichloro-phenyl)-1-[1-(1-isopropyl-6-oxo-piperidine-3-carbonyl)-piperidine-4-carbonyl]-pyrrolidin-3-yl}-methyl-carbamic acid 4-fluoro-phenyl ester]	2
CN(C(=O)Oc1ccc(C#N)c(F)c1)[C@@H]1CN(C(=O)C2CCN(c3ccc(C#N)cn3)CC2)C[C@H]1c1ccc(Cl)cc1 [Example 245, [(3S,4R)-4-(4-Chloro-phenyl)-1-(5′-cyano-3,4,5,6-tetrahydro-2H-[1,2′]bipyridinyl-4-carbonyl)-pyrrolidin-3-yl]-methyl-carbamic acid 4-cyano-3-fluoro-phenyl ester]	1.1
CN(C(=O)Oc1ccc(F)c(Br)c1)[C@@H]1CN(C(=O)C2CCN(C(=O)C3(C)CC3)CC2)C[C@H]1c1ccc(Cl)c(Cl)c1 [Example 113, {(3S,4R)-4-(3,4-Dichloro-phenyl)-1-[1-(1-methyl-cyclopropanecarbonyl)-piperidine-4-carbonyl]-pyrrolidin-3-yl}-methyl-carbamic acid 3-bromo-4-fluoro-phenyl ester]	0.3
CN(C(=O)Oc1ccc(F)cc1)[C@H]1CN(C(=O)C2CCN(C(=O)C3(C)CC3)CC2)C[C@@H]1c1ccc(Cl)cc1 (racemic) [Example 26, rac-{(3R,4S)-4-(4-Chloro-phenyl)-1-[1-(1-methyl-cyclopropanecarbonyl)-piperidine-4-carbonyl]-pyrrolidin-3-yl}-methyl-carbamic acid 4-fluoro-phenyl ester]	2.9
CN(C(=O)OCC1CCC(F)(F)C1)[C@H]1CN(C(=O)C2CCN(C(=O)C3(C)CC3)CC2)C[C@@H]1c1ccc(Cl)c(Cl)c1 (mixture of isomers) [Example 111, rac-{(3R,4S)-4-(3,4-Dichloro-phenyl)-1-[1-(1-methyl-cyclopropanecarbonyl)-piperidine-4-carbonyl]-pyrrolidin-3-yl}-methyl-carbamic acid 3,3-difluoro-cyclopentylmethyl ester]	4.4
CN(C(=O)Oc1ccc(F)cc1)[C@H]1CN(C(=O)CCN2CCCC2=O)C[C@@H]1c1ccc(Cl)c(Cl)c1 (racemic) [Example 56, rac-{(3R,4S)-4-(3,4-Dichloro-phenyl)-1-[3-(2-oxo-pyrrolidin-1-yl)-propionyl]-pyrrolidin-3-yl}-methyl-carbamic acid 4-fluoro-phenyl ester]	61.3
CN(C(=O)Oc1ccc(F)cc1)[C@@H]1CN(C(=O)C2CCN(c3ncc(C#N)cn3)CC2)C[C@H]1c1ccc(Cl)cc1 [Example 192, {(3S,4R)-4-(4-Chloro-phenyl)-1-[1-(5-cyano-pyrimidin-2-yl)-piperidine-4-carbonyl]-pyrrolidin-3-yl}-methyl-carbamic acid 4-fluoro-phenyl ester]	3.6
CN(C(=O)Oc1ccc(F)cc1)[C@H]1CN(C(=O)[C@H]2CC[C@@H](O)CC2)C[C@@H]1c1ccc(Cl)c(Cl)c1 (racemic) [Example 47, rac-[(3R,4S)-4-(3,4-Dichloro-phenyl)-1-(cis-4-hydroxy-cyclohexanecarbonyl)-pyrrolidin-3-yl]-methyl-carbamic acid 4-fluoro-phenyl ester]	3.4
CN(C(=O)OCCC(F)(F)C(F)(F)F)[C@H]1CN(C(=O)C2CCN(C(=O)C3(C)CC3)CC2)C[C@@H]1c1ccc(Cl)c(Cl)c1 (racemic) [Example 83, rac-{(3R,4S)-4-(3,4-Dichloro-phenyl)-1-[1-(1-methyl-cyclopropanecarbonyl)-piperidine-4-carbonyl]-pyrrolidin-3-yl}-methyl-carbamic acid 3,3,4,4,4-pentafluoro-butyl ester]	4.2
CN(C(=O)OCC1CCOC1)[C@H]1CN(C(=O)C2CCN(C(=O)C3(C)CC3)CC2)C[C@@H]1c1ccc(Cl)c(Cl)c1 (mixture of isomers) [Example 85, rac-{(3R,4S)-4-(3,4-Dichloro-phenyl)-1-[1-(1-methyl-cyclopropanecarbonyl)-piperidine-4-carbonyl]-pyrrolidin-3-yl}-methyl-carbamic acid (S)-1-(tetrahydro-furan-3-yl)methyl ester and rac-{(3R,4S)-4-(3,4-Dichloro-phenyl)-1-[1-(1-methyl-cyclopropanecarbonyl)-piperidine-4-carbonyl]-pyrrolidin-3-yl}-methyl-carbamic acid (R)-1-(tetrahydro-furan-3-yl)methyl ester]	9.2

Same assay, conditions: hNK-3 receptor affinity; membranes from HEK293 cells transiently expressing recombinant human NK3 receptor; [3H]SR142801; Cheng-Prussoff; read-out: Data Ki

Compound	Ki [nM]
CN(C(=O)OC1CCOCC1)[C@@H]1CN(C(=O)C2CCN(c3ccc(C#N)cn3)CC2)C[C@H]1c1ccc(Cl)cc1 [Example 156, [(3S,4R)-4-(4-Chloro-phenyl)-1-(5′-cyano-3,4,5,6-tetrahydro-2H-[1,2′]bipyridinyl-4-carbonyl)-pyrrolidin-3-yl]-methyl-carbamic acid tetrahydro-pyran-4-yl ester]	18.3
CN(C(=O)OCC1CCOCC1)[C@@H]1CN(C(=O)C2CCN(c3ccc(C#N)cn3)CC2)C[C@H]1c1ccc(Cl)cc1 [Example 231, [(3S,4R)-4-(4-Chloro-phenyl)-1-(5′-cyano-3,4,5,6-tetrahydro-2H-[1,2′]bipyridinyl-4-carbonyl)-pyrrolidin-3-yl]-methyl-carbamic acid tetrahydro-pyran-4-ylmethyl ester]	5.7
CN(C(=O)OCCCC(F)(F)F)[C@H]1CN(C(=O)C2CCN(C(=O)C3(C)CC3)CC2)C[C@@H]1c1ccc(Cl)cc1 [Example 100, {(3R,4S)-4-(4-Chloro-phenyl)-1-[1-(1-methyl-cyclopropanecarbonyl)-piperidine-4-carbonyl]-pyrrolidin-3-yl}-methyl-carbamic acid 4,4,4-trifluoro-butyl ester]	12.2

— patent US9226916B2, “Pyrrolidine derivatives” (HOFFMANN-LA ROCHE INC., priority 2009, dated 2016)
